Test results reported in the NIST ThermoML archive (doi:10.1016/j.tca.2009.07.002).
± gives the expanded uncertainty stated by the source.

Legend:
[1] = 101 kPa, Liquid, Vibrating tube method
[2] = xn = mol fraction of the nth substance listed; conditions: 101 kPa, Liquid, Vibrating tube method

CCCCO [butan-1-ol]
[1]
Conditions	mass density [kg/m3]
288.15 K	813.373 ± 0.18
293.15 K	809.573 ± 0.18
298.15 K	805.762 ± 0.18
303.15 K	801.923 ± 0.18
308.15 K	798.053 ± 0.19
313.15 K	794.147 ± 0.19
318.15 K	790.231 ± 0.19
323.15 K	786.238 ± 0.19

CCCCO [butan-1-ol] + NC1CCCCC1
[2], x1 = 1
Conditions	mass density [kg/m3]
288.15 K	813.373 ± 0.18
293.15 K	809.573 ± 0.18
298.15 K	805.762 ± 0.18
303.15 K	801.923 ± 0.18
308.15 K	798.053 ± 0.19
313.15 K	794.147 ± 0.19
318.15 K	790.231 ± 0.19
323.15 K	786.238 ± 0.19

NC1CCCCC1 [cyclohexylamine]
[1]
Conditions	mass density [kg/m3]
288.15 K	871.29 ± 0.3
293.15 K	866.747 ± 0.3
298.15 K	862.207 ± 0.3
303.15 K	857.671 ± 0.3
308.15 K	853.138 ± 0.3
313.15 K	848.607 ± 0.3
318.15 K	844.073 ± 0.3
323.15 K	839.547 ± 0.3

CCCCCCC [heptane]
[1]
Conditions	mass density [kg/m3]
288.15 K	687.954 ± 0.23
293.15 K	683.733 ± 0.23
298.15 K	679.494 ± 0.23
303.15 K	675.229 ± 0.24
308.15 K	670.941 ± 0.24
313.15 K	666.621 ± 0.24
318.15 K	662.273 ± 0.24
323.15 K	657.896 ± 0.24

CCCCCCC [heptane] + CCCCO
[2], x2 = 0
Conditions	mass density [kg/m3]
288.15 K	687.954 ± 0.23
293.15 K	683.733 ± 0.23
298.15 K	679.494 ± 0.23
303.15 K	675.229 ± 0.24
308.15 K	670.941 ± 0.24
313.15 K	666.621 ± 0.24
318.15 K	662.273 ± 0.24
323.15 K	657.896 ± 0.24

CCCCCCC [heptane] + NC1CCCCC1
[2], x2 = 0
Conditions	mass density [kg/m3]
288.15 K	687.954 ± 0.23
293.15 K	683.733 ± 0.23
298.15 K	679.494 ± 0.23
303.15 K	675.229 ± 0.24
308.15 K	670.941 ± 0.24
313.15 K	666.621 ± 0.24
318.15 K	662.273 ± 0.24
323.15 K	657.896 ± 0.24
